In ChEMBL document CHEMBL3259687, “Synthesis and identification of chiral aminomethylpiperidine carboxamides as inhibitor of collagen induced platelet activation” (Eur J Med Chem, 2014):
pIC50: −log10 of the molar value. Calls of active or inactive are those of the source. No cut-off for these calls is given here.

Experiments:
Mus musculus [1] = assay: Antithrombotic activity in mouse assessed as protection against collagen-epinephrine-induced pulmonary thromboembolism at 30 uM/kg, po administered 60 mins prior to thrombotic challenge; format: functional
[2] = Antiplatelet activity in human platelet-rich plasma assessed as inhibition of collagen-induced platelet aggregation at 10 uM treated for 5 mins prior to collagen challenge for 5 mins by turbidimetric method; format: functional
Mus musculus [3] = assay: Prolongation of bleeding time in mouse at 30 uM/kg, po administered as single dose by tail excision method; format: ADME, organism-based; settings: in vivo
[4] = Antiplatelet activity in human platelet-rich plasma assessed as inhibition of arachidonic acid-induced platelet aggregation treated for 5 mins prior to arachidonic acid challenge for 5 mins by turbidimetric method; format: functional, cell-free
Platelet [5] = assay: Antiplatelet activity in human platelet-rich plasma assessed as inhibition of TRAP-induced platelet aggregation treated for 5 mins prior to TRAP challenge for 5 mins by turbidimetric method; format: functional, cell-free
[6] = Antiplatelet activity in human platelet-rich plasma assessed as inhibition of collagen-induced platelet aggregation treated for 5 mins prior to collagen challenge for 5 mins by turbidimetric method; format: functional, cell-free
[7] = Antiplatelet activity in human platelet-rich plasma assessed as inhibition of U46619-induced platelet aggregation treated for 5 mins prior to U46619 challenge for 5 mins by turbidimetric method; format: functional, cell-free
Platelet [8] = assay: Antiplatelet activity in human platelet-rich plasma assessed as inhibition of ristocetin-induced platelet aggregation treated for 5 mins prior to ristocetin challenge for 5 mins by turbidimetric method; format: functional, cell-free
Platelet [9] = assay: Antiplatelet activity in human platelet-rich plasma assessed as inhibition of ADP-induced platelet aggregation treated for 5 mins prior to ADP challenge for 5 mins by turbidimetric method; format: functional, cell-free
[10] = Antiplatelet activity in human platelet-rich plasma assessed as inhibition of collagen-induced platelet aggregation at 30 uM treated for 5 mins prior to collagen challenge for 5 mins by turbidimetric method; format: functional

SMILES | Activity (Mus musculus [1]) | inhibition at 10 µM [2] | other results
COc1ccccc1CN1C(=O)CC[C@H]1C(=O)N1CCC[C@H](CNC(=O)OC(C)(C)C)C1 | 50% | 22% | 
CC1OCC(=O)N(Cc2ccccc2)[C@@H]1C(=O)N1CCC[C@@H](CNC(=O)OC(C)(C)C)C1 (stereo partly drawn) | 20% |  | 
Cc1ccc(CN2C(=O)OC[C@H]2C(=O)N2CCC[C@@H](CNC(=O)OC(C)(C)C)C2)cc1 | 30% |  | Activity (Mus musculus [3]): 54%
Cc1cccc(CN2C(=O)CC[C@H]2C(=O)N2CCC[C@H](CNC(=O)OC(C)(C)C)C2)c1 | 70% | 13% | 
CC(C)(C)OC(=O)NC[C@H]1CCCN(C(=O)[C@@H]2CCC(=O)N2Cc2ccc(C#N)cc2)C1 | 10% | 25% | 
CC(C)(C)OC(=O)NC[C@H]1CCCN(C(=O)[C@@H]2CCC(=O)N2Cc2ccc(Cl)cc2)C1 | 15% | 21% | 
Cc1ccc(CN2C(=O)CSCC2C(=O)N2CCC[C@@H](CNC(=O)OC(C)(C)C)C2)cc1 (single isomer, unassigned) | 30% | 15% | 
Cc1ccc(CN2CSC[C@H]2C(=O)N2CCC[C@H](CNC(=O)OC(C)(C)C)C2)cc1 | 60% |  | Activity (Mus musculus [3]): 72%; inhibition (INH) [4]: 93%; pIC50 ([4]; Homo sapiens, Platelet, Plasma): 5.22; inhibition (Platelet [5]): inactive; inhibition (INH) [6]: 87%; pIC50 ([6]; Homo sapiens, Platelet, Plasma): 5.48; inhibition (INH) [7]: 100%; pIC50 ([7]; Homo sapiens, Platelet, Plasma): 5.57; inhibition (Platelet [8]): inactive; inhibition (Platelet [9]): inactive
COc1cccc(CN2C(=O)CC[C@H]2C(=O)N2CCC[C@H](CNC(=O)OC(C)(C)C)C2)c1 | 22.3% | 6% | 
O=C([C@@H]1CCC(=O)N1Cc1ccccc1)N1CCN(c2ccccc2Cl)CC1 | 40% |  | inhibition (INH) [6]: 74%
CC(C)(C)OC(=O)NCC1CCCN(C(=O)[C@@H]2CCC(=O)N2Cc2ccccc2Cl)C1 (mixture of isomers) | 70% |  | Activity (Mus musculus [3]): 60%; inhibition at 30 µM [10]: 15%
CC(C)(C)OC(=O)NC[C@@H]1CCCN(C(=O)[C@@H]2CCC(=O)N2Cc2ccc(Cl)c(Cl)c2)C1 | 20% | 27% | 
CC(C)(C)C(=O)NCC1CCCN(C(=O)[C@@H]2CCC(=O)N2Cc2ccccc2)C1 (mixture of isomers) | 50% |  | Activity (Mus musculus [3]): 41%; inhibition at 30 µM [10]: 2.4%
Cc1ccc(CN2C(=O)CC[C@H]2C(=O)N2CCC[C@@H](CNS(=O)(=O)c3ccc(C)cc3)C2)cc1 | 40% |  | 
Cc1ccc(CN2C(=O)CC[C@H]2C(=O)N2CCC[C@@H](CNC(=O)[C@@H](NC(=O)OCc3ccccc3)C(C)C)C2)cc1 | 10% |  | 
CC(C)(C)OC(=O)NC[C@@H]1CCCN(C(=O)[C@@H]2CCC(=O)N2Cc2c(Cl)cccc2Cl)C1 | 20% | 24% | 
COc1ccc(CN2C(=O)CC[C@H]2C(=O)N2CCC[C@H](CNC(=O)OC(C)(C)C)C2)cc1 | 20% | 25% | 
Cc1ccc(CN2C(=O)CSC[C@H]2C(=O)N2CCCC(CNC(=O)OC(C)(C)C)C2)cc1 (single isomer, unassigned) | 30% | 18% | 
Cc1ccc(CN2C(=O)COC(C)[C@H]2C(=O)N2CCC[C@@H](CNC(=O)OC(C)(C)C)C2)cc1 (stereo partly drawn) | 20% |  | 
Cc1ccc(CN2C(=O)CCC[C@H]2C(=O)N2CCC[C@H](CNC(=O)OC(C)(C)C)C2)cc1 | 50% | 22% | 
COc1cccc(CN2C(=O)CC[C@H]2C(=O)N2CCC[C@@H](CNC(=O)OC(C)(C)C)C2)c1 |  | 34% | 
CC(C)(C)OC(=O)NCC1CCCN(C(=O)[C@@H]2CCC(=O)N2C/C=C/c2ccccc2)C1 (mixture of isomers) | 30% |  | Activity (Mus musculus [3]): 0%; inhibition at 30 µM [10]: 42%
Cc1ccc(CN2C(=O)OC[C@H]2C(=O)N2CCC[C@H](CNC(=O)OC(C)(C)C)C2)cc1 | 20% |  | Activity (Mus musculus [3]): 10%
CC(C)(C)OC(=O)NC[C@H]1CCCN(C(=O)[C@@H]2CCC(=O)N2Cc2c(Cl)cccc2Cl)C1 | 10% | 22% | 
O=C([C@@H]1CCC(=O)N1Cc1ccccc1)N1CCN(c2ccccc2F)CC1 | 50% |  | inhibition (INH) [6]: 57%
CC(C)(C)OC(=O)NC[C@H]1CCCN(C(=O)[C@@H]2CCC(=O)N2Cc2ccc(Br)cc2)C1 | 50% | 4% | 
CC(C)(C)OC(=O)NC[C@@H]1CCCN(C(=O)[C@@H]2CCC(=O)N2Cc2ccccc2Br)C1 | 50% | 27% | 
CC(C)(C)OC(=O)NC[C@@H]1CCCN(C(=O)[C@@H]2CCC(=O)N2Cc2ccc(Br)cc2)C1 | 40% | 20% | 

SMILES | Activity (Mus musculus [1]) | inhibition at 10 µM [2] | other results
CC(C)(C)OC(=O)NC[C@@H]1CCCN(C(=O)[C@@H]2CCC(=O)N2Cc2ccccc2)C1 | 20% | 26% | 
COc1ccc(CN2C(=O)CC[C@H]2C(=O)N2CCC[C@@H](CNC(=O)OC(C)(C)C)C2)cc1 | 20% | 7% | 
CC(C)(C)OC(=O)NC[C@H]1CCCN(C(=O)[C@@H]2CCC(=O)N2Cc2ccccc2Br)C1 | 50% | 6% | 
Cc1ccc(S(=O)(=O)NCC2CCCN(C(=O)[C@@H]3CCC(=O)N3Cc3ccccc3)C2)cc1 (mixture of isomers) | 25% |  | Activity (Mus musculus [3]): 0%; inhibition at 30 µM [10]: 72%
CC(C)(C)OC(=O)NC[C@H]1CCCN(C(=O)[C@@H]2CCC(=O)N2Cc2cccc(C#N)c2)C1 | 20% | 19% | 
CC(C)(C)OC(=O)NC[C@@H]1CCCN(C(=O)[C@@H]2CCC(=O)N2Cc2ccc(C#N)cc2)C1 | 60% | 8% | 
CC(C)(C)OC(=O)NC[C@H]1CCCN(C(=O)[C@@H]2CCC(=O)N2Cc2ccc(Cl)c(Cl)c2)C1 | 30% | 24% | 
Cc1ccc(C(=O)N2CSC[C@H]2C(=O)N2CCC[C@H](CNC(=O)OC(C)(C)C)C2)cc1 | 40% |  | Activity (Mus musculus [3]): 50%
CC(C)(C)OC(=O)NC[C@@H]1CCCN(C(=O)[C@@H]2CCC(=O)N2Cc2cccc(C#N)c2)C1 | 30% | 6% | 
Cc1ccc(CN2C(=O)CC[C@H]2C(=O)N2CCC[C@@H](CNC(=O)[C@H](Cc3ccccc3)NC(=O)OCc3ccccc3)C2)cc1 | 30% |  | 
O=C(NCC1CCN(C(=O)[C@@H]2CCC(=O)N2Cc2ccc(Br)cc2)CC1)OCc1ccccc1 | 70% |  | Activity (Mus musculus [3]): 25%; inhibition at 30 µM [10]: 11%
Cc1ccc(CN2C(=O)COC(C)[C@H]2C(=O)N2CCC[C@H](CNC(=O)OC(C)(C)C)C2)cc1 (stereo partly drawn) | 30% |  | 
Cc1ccc(CN2C(=O)CC[C@H]2C(=O)N2CCC[C@@H](CNC(=O)c3ccc(C)cc3)C2)cc1 | 30% |  | 
Cc1cccc(CN2C(=O)CC[C@H]2C(=O)N2CCC[C@@H](CNC(=O)OC(C)(C)C)C2)c1 | 30% | 28% | 
COc1ccccc1CN1C(=O)CC[C@H]1C(=O)N1CCC[C@@H](CNC(=O)OC(C)(C)C)C1 | 40% | 32% | 
CC1OCC(=O)N(Cc2ccccc2)[C@@H]1C(=O)N1CCC[C@H](CNC(=O)OC(C)(C)C)C1 (stereo partly drawn) | 20% |  | 
CC(C)(C)OC(=O)NCC1CCN(C(=O)[C@@H]2CCC(=O)N2Cc2ccc(C#N)cc2)CC1 | 40% |  | Activity (Mus musculus [3]): 0%; inhibition at 30 µM [10]: 34%
CC(C)(C)OC(=O)NCC1CCCN(C(=O)[C@@H]2CCC(=O)N2Cc2ccc(Br)cc2)C1 (mixture of isomers) | 67% |  | Activity (Mus musculus [3]): 60%; inhibition at 30 µM [10]: 66.4%
Cc1ccc(C(=O)N2CSC[C@H]2C(=O)N2CCC[C@@H](CNC(=O)OC(C)(C)C)C2)cc1 | 10% |  | Activity (Mus musculus [3]): 8%
Cc1ccc(CN2C(=O)CCC[C@H]2C(=O)N2CCC[C@@H](CNC(=O)OC(C)(C)C)C2)cc1 | 40% | 18% | 
CC(C)(C)OC(=O)NC[C@H]1CCCN(C(=O)[C@@H]2CCC(=O)N2Cc2ccccc2)C1 | 50% | 17% | 
CC(C)(C)OC(=O)NC[C@@H]1CCCN(C(=O)[C@@H]2CCC(=O)N2Cc2ccc3ccccc3c2)C1 | 30% | 29% | 
O=C(CNC(=O)OCc1ccccc1)NCC1CCCN(C(=O)[C@@H]2CCC(=O)N2Cc2ccccc2)C1 (mixture of isomers) | 40% |  | Activity (Mus musculus [3]): 13%; inhibition at 30 µM [10]: 12%
CC(C)(C)OC(=O)NC[C@H]1CCCN(C(=O)[C@@H]2CCC(=O)N2Cc2ccc3ccccc3c2)C1 | 22.3% | 22% | 
CC(C)(C)OC(=O)NCC1CCN(C(=O)[C@@H]2CCC(=O)N2Cc2c(Cl)cccc2Cl)CC1 | 70% |  | Activity (Mus musculus [3]): 50%; inhibition at 30 µM [10]: 80%
CC(C)(C)OC(=O)NC[C@@H]1CCCN(C(=O)[C@@H]2CCC(=O)N2Cc2ccc(Cl)cc2)C1 | 50% | 35% | 
Cc1ccc(CN2C(=O)CC[C@H]2C(=O)N2CCC[C@@H](CNC(=O)[C@H](CC(C)C)NC(=O)OCc3ccccc3)C2)cc1 | 30% |  | 
